Patent US12365655B2, “Compounds” (CTXT PTY LTD, priority 2018, dated 2025)

Experiments:
[1] = biological target: HBO-KAT7 (Homo sapiens, UniProt O95251); test: Acetyltransferase biochemical assay (AlphaScreen), KAT7
[2] = biological target: MOZ-KAT6A (Homo sapiens, UniProt Q92794, A567V); test: Acetyltransferase biochemical assay (AlphaScreen), KAT6A
[3] = biological target: TIP60-KAT5 (Homo sapiens, UniProt Q92993); test: Acetyltransferase biochemical assay (AlphaScreen), KAT5
Chain of TIP60-KAT5 (Q92993 with tags, fused parts or gaps isoform Q92993-2): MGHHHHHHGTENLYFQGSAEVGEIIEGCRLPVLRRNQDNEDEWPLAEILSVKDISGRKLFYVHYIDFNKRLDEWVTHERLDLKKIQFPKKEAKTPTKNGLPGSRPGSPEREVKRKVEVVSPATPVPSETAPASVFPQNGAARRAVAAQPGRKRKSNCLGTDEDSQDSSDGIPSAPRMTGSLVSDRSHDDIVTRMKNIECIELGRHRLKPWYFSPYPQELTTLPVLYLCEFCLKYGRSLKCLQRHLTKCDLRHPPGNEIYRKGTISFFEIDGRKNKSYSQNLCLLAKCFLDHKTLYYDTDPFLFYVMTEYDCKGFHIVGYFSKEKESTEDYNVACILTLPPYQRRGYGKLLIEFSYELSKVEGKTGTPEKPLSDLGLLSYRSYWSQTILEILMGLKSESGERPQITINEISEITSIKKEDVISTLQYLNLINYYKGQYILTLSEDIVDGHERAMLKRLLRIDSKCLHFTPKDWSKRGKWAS

Chain of MOZ-KAT6A (Q92794 with tags, fused parts or gaps A567V): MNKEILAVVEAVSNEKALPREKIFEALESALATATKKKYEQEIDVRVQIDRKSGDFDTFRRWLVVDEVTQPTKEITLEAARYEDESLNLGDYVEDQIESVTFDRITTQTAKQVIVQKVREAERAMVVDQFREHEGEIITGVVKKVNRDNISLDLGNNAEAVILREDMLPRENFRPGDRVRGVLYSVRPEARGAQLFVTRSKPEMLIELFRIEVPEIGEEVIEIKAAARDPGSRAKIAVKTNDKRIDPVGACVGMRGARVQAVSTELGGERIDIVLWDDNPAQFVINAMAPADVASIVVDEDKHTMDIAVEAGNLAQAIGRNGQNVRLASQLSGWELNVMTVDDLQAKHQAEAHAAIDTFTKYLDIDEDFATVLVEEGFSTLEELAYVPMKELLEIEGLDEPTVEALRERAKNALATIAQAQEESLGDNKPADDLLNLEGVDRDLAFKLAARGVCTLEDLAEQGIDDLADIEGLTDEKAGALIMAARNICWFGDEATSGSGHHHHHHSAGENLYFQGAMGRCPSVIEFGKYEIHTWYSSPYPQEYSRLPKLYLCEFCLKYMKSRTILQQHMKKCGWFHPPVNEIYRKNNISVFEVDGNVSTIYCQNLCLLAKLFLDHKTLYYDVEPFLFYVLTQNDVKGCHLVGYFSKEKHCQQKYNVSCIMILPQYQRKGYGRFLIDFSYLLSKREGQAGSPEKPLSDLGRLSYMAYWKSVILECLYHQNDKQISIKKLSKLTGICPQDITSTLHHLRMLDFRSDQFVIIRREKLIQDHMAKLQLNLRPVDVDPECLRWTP
Chain of HBO-KAT7 (O95251 with tags, fused parts or gaps): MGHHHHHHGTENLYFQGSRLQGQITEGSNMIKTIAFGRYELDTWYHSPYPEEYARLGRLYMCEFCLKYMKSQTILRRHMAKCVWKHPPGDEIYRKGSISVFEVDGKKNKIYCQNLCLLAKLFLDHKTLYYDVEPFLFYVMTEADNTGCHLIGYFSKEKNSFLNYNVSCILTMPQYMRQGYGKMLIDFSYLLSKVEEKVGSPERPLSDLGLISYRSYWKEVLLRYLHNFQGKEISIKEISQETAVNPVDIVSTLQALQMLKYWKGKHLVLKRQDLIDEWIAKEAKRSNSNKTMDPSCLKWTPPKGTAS

IC50 [1] [µM]	IC50 [2] [µM]	IC50 [3] [µM]	Compound
3.13	0.786	28.1	COc1cccc(OC)c1S(=O)(=O)Nc1noc2ccc(C)cc12 [Example 104, 2,6-Dimethoxy-N-(5-methylbenzo[d]isoxazol-3-yl)benzenesulfonamide]
27.6	6.45	51.5	CCc1ccc(OC)c(S(=O)(=O)Nc2noc3cc(OCC4CC4)ccc23)c1 [Example 134]
3.41	5.6	31.3	COc1ccc2cccnc2c1S(=O)(=O)Nc1noc2cccc(OC)c12 [Example 98, 7-Methoxy-N-(4-methoxybenzo[d]isoxazol-3-yl)quinoline-8-sulfonamide]
7.51	41.2	> 125	COCc1ccccc1S(=O)(=O)Nc1noc2cccc(OC)c12 [Example 88, N-(4-methoxybenzo[d]isoxazol-3-yl)-2-(methoxymethyl)benzene-sulfonamide]
10.2	1.83	122	COc1cccc(OC)c1S(=O)(=O)Nc1noc2cc(COCC(F)(F)F)cc(OC)c12 [Example 240, 2,6-Dimethoxy-N-(4-methoxy-6-((2,2,2-trifluoroethoxy)methyl)benzo[d]isoxazol-3-yl)benzenesulfonamide]
> 125	116	> 125	O=S(=O)(Nc1noc2ccccc12)c1cccc(Cl)c1Cl [Example 60, N-(benzo[d]isoxazol-3-yl)-2,3-dichlorobenzene-sulfonamide]
18.4	10.2	> 125	COc1cccc(OC(C)C)c1S(=O)(=O)Nc1noc2cccc(OC)c12 [Example 217, 2-Isopropoxy-6-methoxy-N-(4-methoxybenzo[d]isoxazol-3-yl)benzenesulfonamide]
8.38	5.95	11.6	O=S(=O)(Nc1noc2cccc(Cl)c12)c1ccc2c(c1)CCCC2 [Example 42, N-(4-chlorobenzo [d]isoxazol-3-yl)-5,6,7,8-tetrahydronaphthalene-2-sulfonamide]
23.2	23.8	65.1	COc1c(S(=O)(=O)Nc2noc3cccc(Cl)c23)ccc(Cl)c1Cl [Example 3, 3,4-dichloro-N-(4-chlorobenzo[d]isoxazol-3-yl)-2-methoxy benzenesulfonamide]
13	11	27.9	O=S(=O)(Nc1noc2cccc(Cl)c12)c1cccc2ccccc12 [Example 124, N-(4-Chlorobenzo[d]isoxazol-3-yl)naphthalene-1-sulfonamide]
31	> 125	> 125	CCc1ccc(OC)c(S(=O)(=O)Nc2noc3c(C(=O)NC)cccc23)c1 [Example 184, 3-(5-Ethyl-2-methoxyphenylsulfonamido)-N-methylbenzo[d]isoxazole-7-carboxamide]
> 125	75.2	124	CCc1ccc(OC)c(S(=O)(=O)Nc2noc3ccc(CNC(C)=O)cc23)c1 [Example 228, N-((3-((5-Ethyl-2-methoxyphenyl)sulfonamido)benzo[d]isoxazol-5-yl)methyl)acetamide]
> 125	103	> 125	COc1ccc(-c2ccno2)cc1S(=O)(=O)Nc1noc2ccccc12 [Example 55, N-(benzo[d]isoxazol-3-yl)-5-(isoxazol-5-yl)-2-methoxybenzene sulfonamide]
23.4	22.6	74.3	CCc1ccc(OC)c(S(=O)(=O)Nc2noc3cccc(-c4cncnc4)c23)c1 [Example 203, 5-Ethyl-2-methoxy-N-(4-(pyrimidin-5-yl)benzo[d]isoxazol-3-yl)benzenesulfonamide]
0.375	0.139	9.33	COc1cc(C)cc(-c2cc(OC)c3c(NS(=O)(=O)c4c(OC)cccc4OC)noc3c2)c1 [Example 248, 2,6-Dimethoxy-N-(4-methoxy-6-(3-methoxy-5-methylphenyl)benzo[d]isoxazol-3-yl)benzenesulfonamide]
2.04	3.09	41.9	CCc1ccc(OC)c(S(=O)(=O)Nc2noc3ccc(Br)c(OC)c23)c1 [Example 108, N-(5-bromo-4-methoxybenzo[d]isoxazol-3-yl)-5-ethyl-2-methoxy benzenesulfonamide]
5.21	1.24	29	CCc1ccc(OC)c(S(=O)(=O)Nc2noc3cccc(C(F)(F)F)c23)c1 [Example 121, 5-Ethyl-2-methoxy-N-(4-(trifluoromethyl)benzo[d]isoxazol-3-yl)benzenesulfonamide]
> 125	56.2	> 125	CCOc1ccc(CC)cc1S(=O)(=O)Nc1noc2ccccc12 [Example 57, N-(benzo[d]isoxazol-3-yl)-2-ethoxy-5-ethylbenzene sulfonamide]
6.85	8.67	32.2	COc1ccc(S(=O)(=O)Nc2noc3cc(CO)ccc23)c(OC)c1 [Example 167]
> 125	59	> 125	CCc1ccc(OC)c(S(=O)(=O)Nc2noc3ccc(C(=O)N(C)C)cc23)c1 [Example 231, 3-((5-Ethyl-2-methoxyphenyl)sulfonamido)-N,N-dimethylbenzo[d]isoxazole-5-carboxamide]

IC50 [1] [µM]	IC50 [2] [µM]	IC50 [3] [µM]	Compound
5.34	4.45	45.7	CCc1ccc(OC)c(S(=O)(=O)Nc2noc3c(OCC4CC4)cccc23)c1 [Example 133]
54.8	117	> 125	O=S(=O)(Nc1noc2cccc(Cl)c12)c1ccc(-n2cccn2)cc1 [Example 28, N-(4-chlorobenzo [d]isoxazol-3-yl)-4-(1H-pyrazol-1-yl)benzenesulfonamide]
114	24.8	> 125	COc1cc(C)c(C(C)C)cc1S(=O)(=O)Nc1noc2cccc(Cl)c12 [Example 37, N-(4-chlorobenzo [d]isoxazol-3-yl)-5-isopropyl-2-methoxy-4-methylbenzenesulfonamide]
1.77	3.87	28.5	COc1cc(OC)c(S(=O)(=O)Nc2noc3cccc(OC)c23)c(OC)c1 [Example 85, 2,4,6-trimethoxy-N-(4-methoxybenzo[d]isoxazol-3-yl)benzene sulfonamide]
18	4.95	> 125	CCc1ccc(OC)c(S(=O)(=O)Nc2noc3ccc(-c4cnn(C)c4)cc23)c1 [Example 237, 5-Ethyl-2-methoxy-N-(5-(1-methyl-1H-pyrazol-4-yl)benzo[d]isoxazol-3-yl)benzenesulfonamide]
0.72	0.654	18.1	COc1cccc(OC)c1S(=O)(=O)Nc1noc2cc(-c3cccc(C#N)c3)cc(OC)c12 [Example 243]
6.95	2.82	73.7	CCc1ccc(OC)c(S(=O)(=O)Nc2noc3cccc(C)c23)c1 [Example 198, 5-Ethyl-2-methoxy-N-(4-methylbenzo[d]isoxazol-3-yl)benzenesulfonamide]
47.1	25.2	84.7	CCc1ccc(OC)c(S(=O)(=O)Nc2noc3c(CO)cccc23)c1 [Example 186]
> 125	51.9	85.4	O=S(=O)(Nc1noc2ccccc12)c1ccc(Cl)c(Cl)c1 [Example 61, N-(benzo[d]isoxazol-3-yl)-3,4-dichlorobenzene-sulfonamide]
15.6	15.2	65.6	CCc1ccc(S(=O)(=O)Nc2noc3ccccc23)c(OC)c1 [Example 182]
3	2.13	17.4	COc1cccc(OC)c1S(=O)(=O)Nc1noc2c(Br)cc(C)cc12 [Example 239]
60.1	2.56	> 125	CCc1ccc(OC)c(S(=O)(=O)Nc2noc3ccccc23)c1 [Example 63, N-(benzo[d]isoxazol-3-yl)-5-ethyl-2-methoxy benzene-sulfonamide]
45.7	21	> 125	CCc1ccc(OC)c(S(=O)(=O)Nc2noc3cc(-c4cncnc4)ccc23)c1 [Example 197, 5-Ethyl-2-methoxy-N-(6-(pyrimidin-5-yl)benzo[d]isoxazol-3-yl)benzenesulfonamide]
24.3	39.6	> 125	COc1cc(Br)ccc1S(=O)(=O)Nc1noc2ccccc12 [Example 141]
> 125	113	> 125	O=S(=O)(Nc1noc2cccc(Cl)c12)c1ccc2nc(O)oc2c1 [Example 8, N-(4-chlorobenzo [d]isoxazol-3-yl)-2-hydroxybenzo[d]oxazole-6-sulfonamide]
23.9	21.8	72.9	O=S(=O)(Nc1noc2cccc(Cl)c12)c1ccc(OC(F)(F)F)cc1 [Example 23, N-(4-chlorobenzo [d]isoxazol-3-yl)-4-(trifluoromethoxy) benzenesulfonamide]
4.48	5.6	33.2	COc1cc(-c2ccccc2)ccc1S(=O)(=O)Nc1noc2ccccc12 [Example 183, N-(Benzo[d]isoxazol-3-yl)-3-methoxy-[1,1-biphenyl]-4-sulfonamide]
23.3	13.9	95.4	CCc1ccc(OC)c(S(=O)(=O)Nc2noc3cc(-c4cnn(C)c4)ccc23)c1 [Example 196, 5-Ethyl-2-methoxy-N-(6-(1-methyl-1H-pyrazol-4-yl)benzo[d]isoxazol-3-yl)benzenesulfonamide]
20.5	8.28	> 125	COc1cccc(O)c1S(=O)(=O)Nc1noc2cccc(OC)c12 [Example 213, 2-Hydroxy-6-methoxy-N-(4-methoxybenzo[d]isoxazol-3-yl)benzenesulfonamide]
